Literature values as cited in patent EP4756025A1, “DSRNA TARGETING MAPT AND PHARMACEUTICAL USE THEREOF” (Tuojie Biotech (Shanghai) Co., Ltd., priority 2023, dated 2025).

Conditions: octanol-water partition coefficient, example in the definition of lipophilic moiety

| SMILES | logKow |
| --- | --- |
| NCCCCCCO [6-aminohexanol] | about 0.7 |
| CC(C)CCC[C@@H](C)[C@H]1CC[C@H]2[C@@H]3CC=C4C[C@@H](OC(=O)NCCCCCCO)CC[C@]4(C)[C@H]3CC[C@]12C [cholesteryl N-(hexan-6-ol)carbamate] | 10.7 |
